Experiments:
[1] = biological target: T1, Nluc-H1R (Homo sapiens, UniProt P35367); test: NanoBRET saturation binding in whole HEK293T cells
Excerpt: (§1) Immediately before experimentation, media was replaced with HBSS. […] […]. […] […].

[2] = biological target: T1, Nluc-H1R; test: NanoBRET association kinetics in whole HEK293T cells; assay type: binding; conditions: for Kd: kinetic KD (koff/kon), whole HEK293T cells expressing Nluc-H1R, read-out: NanoBRET kinetics pKD (converted); for residence time: read-out: NanoBRET kinetics Tr (residence time); for koff: read-out: NanoBRET kinetics koff, whole HEK293T cells expressing Nluc-H1R, room temperature; for kon: read-out: NanoBRET kinetics kon, whole HEK293T cells expressing Nluc-H1R, room temperature, non-specific 10 μM doxepin
Excerpt: as §1

[3] = biological target: T2, human H1R (Homo sapiens, UniProt P35367); test: [3H]mepyramine competition radioligand binding, HEK293T cell homogenates; conditions: read-out: Radioligand binding pKi (converted)
T2 construct: expressed in transfected cells
Description: […]. […] […]. All ligand binding was performed under gentle agitation. […] […].

[4] = biological target: T3, H1-YFP (Homo sapiens, UniProt P35367); assay type: cell-based
T3 construct: expressed in transfected cells
Description: CHO H1R and CHO H1-YFP cells were grown to approximately 80% confluency on 8-well Labtek chambered coverglasses (Nunc Nalgene). […] Cells were then incubated with the required concentration of fluorescent ligand for 30 min prior to the collection of single equatorial confocal images. Images were obtained using a Zeiss LSM710 confocal microscope (Carl Zeiss GmbH, Jena, Germany) fitted with a 63× plan-Apochromat NA1.3 Ph3 oil-immersion lens within the School of Life Sciences Imaging Unit. […] For all experiments a pinhole of 1 Airy Unit was used and fixed laser power, gain and offset for the BY630 containing compounds were kept the same for samples within each experiment.

[5] = biological target: H1R; set-up: method as in PMID 22007643; conditions: parent compound at the H1R; cited from earlier work
[6] = biological target: T1, Nluc-H1R; test: NanoBRET saturation binding in HEK293T cell membranes; conditions: value used in Cheng-Prusoff equation, read-out: KD of labelled ligand in membranes
Description: (§2) HEK293T cell stably expressing Nluc-H1 were grown to confluence in 500 cm^2 dishes. Normal growth media was replaced with ice-cold PBS and the cells were removed from the dish by scraping. The cells were then transferred to a 50 ml tube and centrifuged at 250 × g for 5 min. The supernatant was removed and the resulting pellets stored at −80 °C. Thawed pellets were resuspended in PBS and homogenized using an electrical homogenizer in 10 × 2 s bursts. Unbroken cells and nuclei were removed by centrifugation (1200 × g for 10 min) and the supernatant subsequently centrifuged at 41,415 g for 30 min. The membrane pellet was resuspended in PBS and homogenized by 20 passes of a glass-on-Teflon homogenizer. Protein concentration was determined using a BCA protein assay and membranes stored at −80 °C until required.
(§3) Immediately before experimentation, media was replaced with HBSS. […] For association kinetics experiments, the required concentration of fluorescent ligand in the presence or absence of 10 µM doxepin was added simultaneously. […] Non-specific binding was determined by the addition of […] 10 µM doxepin.

[7] = biological target: T1, Nluc-H1R; test: NanoBRET association kinetics in HEK293T cell membranes; assay type: binding; conditions: kinetic, n = 4, read-out: pKD (calculated affinity) in membranes (converted)
Description: as §2, §3
From association kinetic data, non-specific binding was determined for each concentration of fluorescent ligand at each time point by the addition of 10 µM doxepin and was subtracted from total binding.

[8] = HEK293T cells expressing Nluc-H1R, mean ± SEM, read-out: NanoBRET saturation pKD (converted)
[9] = NanoBRET, value used in Cheng-Prusoff equation, read-out: KD of labelled ligand in whole cells

T1 sequence (P35367 2-487 limits assumed): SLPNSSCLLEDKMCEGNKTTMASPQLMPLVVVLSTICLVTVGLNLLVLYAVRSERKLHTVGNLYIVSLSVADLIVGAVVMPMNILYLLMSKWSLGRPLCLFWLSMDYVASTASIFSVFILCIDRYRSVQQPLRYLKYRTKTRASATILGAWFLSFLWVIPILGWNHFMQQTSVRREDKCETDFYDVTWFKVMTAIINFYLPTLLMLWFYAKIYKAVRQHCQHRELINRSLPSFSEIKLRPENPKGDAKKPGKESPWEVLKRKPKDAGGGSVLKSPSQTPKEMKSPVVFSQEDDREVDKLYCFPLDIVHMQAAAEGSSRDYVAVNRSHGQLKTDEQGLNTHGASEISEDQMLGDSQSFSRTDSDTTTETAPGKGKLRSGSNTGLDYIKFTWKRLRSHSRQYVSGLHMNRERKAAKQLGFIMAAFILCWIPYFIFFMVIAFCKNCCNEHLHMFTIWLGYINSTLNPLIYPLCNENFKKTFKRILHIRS
T3 sequence (P35367 whole entry): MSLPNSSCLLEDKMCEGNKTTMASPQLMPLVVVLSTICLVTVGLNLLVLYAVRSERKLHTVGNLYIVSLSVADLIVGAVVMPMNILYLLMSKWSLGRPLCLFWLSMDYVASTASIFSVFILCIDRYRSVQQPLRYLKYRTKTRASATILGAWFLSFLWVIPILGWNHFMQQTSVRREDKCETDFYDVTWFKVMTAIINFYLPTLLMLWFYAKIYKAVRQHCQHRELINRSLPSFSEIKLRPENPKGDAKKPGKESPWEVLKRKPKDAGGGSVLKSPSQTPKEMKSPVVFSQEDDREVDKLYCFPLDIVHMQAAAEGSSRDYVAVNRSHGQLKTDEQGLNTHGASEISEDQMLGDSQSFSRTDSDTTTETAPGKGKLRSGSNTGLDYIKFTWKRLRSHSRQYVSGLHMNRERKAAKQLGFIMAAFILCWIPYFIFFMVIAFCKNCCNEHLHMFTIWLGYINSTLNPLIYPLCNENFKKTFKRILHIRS
T2 sequence (P35367 whole entry): as above

## COc1ccc(CN(CCN(C)CCC(=O)N[C@@H](C)C(=O)N[C@@H](C)C(=O)N[C@@H](CO)C(=O)NCCNC(=O)CCCCCNC(=O)COc2ccc(/C=C/C3=[N+]4C(=Cc5ccc(-c6cccs6)n5[B-]4(F)F)C=C3)cc2)c2ccccn2)cc1 [Compound 11, 6-(2-(4-((E)-2-(5,5-difluoro-7-(thiophen-2-yl)-5H-4λ^4,5λ^4-dipyrrolo[1,2-c:2′,1′-f][1,3,2]diazaborinin-3-yl)vinyl)phenoxy)acetamido)-N-((10 S,13 S,16 S)-16-(hydroxymethyl)-1-(4-methoxyphenyl)-5,10,13-trimethyl-8,11,14,17-tetraoxo-2-(pyridin-2-yl)-2,5,9,12,15,18-hexaazaicosan-20-yl)hexanamide]
[1]; [8]
  Kd: 63.1 nM
[2]
  Kd: 6.31 nM
  residence time: 8.4 ± 0.91 min
  koff: 0.0021 s⁻¹
  kon: 330000 M⁻¹ s⁻¹
[3]
  Ki: 10 nM
[4]
  BODIPY630/650 fluorescence localisation (confocal): clear membrane localisation
  fluorescence after pre-treatment with unlabelled mepyramine (specificity, confocal): some residual cell surface fluorescence was observed

## NC(=O)C[C@H](NC(=O)CNC(=O)CNC(=O)CCN1CCC(Oc2ccccc2Cc2ccccc2)CC1)C(=O)NCCNC(=O)CCCCCNC(=O)COc1ccc(/C=C/C2=[N+]3C(=Cc4ccc(-c5cccs5)n4[B-]3(F)F)C=C2)cc1 [Compound 24, (S,E)-2-(2-(2-(3-(4-(2-benzylphenoxy)piperidin-1-yl)propanamido)acetamido)acetamido)-N^1-(2-(6-(2-(4-(2-(5,5-difluoro-7-(thiophen-2-yl)-5H-4λ^4,5λ^4-dipyrrolo[1,2-c:2′,1′-f][1,3,2]diazaborinin-3-yl)vinyl)phenoxy)acetamido)hexanamido)ethyl)succinamide]
[1]; [8]
  Kd: 25.1 nM
[2]
  Kd: 10 nM
  residence time: 37.8 ± 3.44 min
  koff: 0.00045 s⁻¹
  kon: 48300 M⁻¹ s⁻¹
[3]
  Ki: 5.01 nM

## COc1ccc(CN(CCN(C)CCC(=O)NCCCC(=O)N[C@@H](C)C(=O)N[C@@H](C)C(=O)NCCNC(=O)CCCCCNC(=O)COc2ccc(/C=C/C3=[N+]4C(=Cc5ccc(-c6cccs6)n5[B-]4(F)F)C=C3)cc2)c2ccccn2)cc1 [Compound 12, 5,5-difluoro-3-((E)-4-(((15 R,18 R)-1-(4-methoxyphenyl)-5,15,18-trimethyl-8,13,16,19,24,31-hexaoxo-2-(pyridin-2-yl)-2,5,9,14,17,20,23,30-octaazadotriacontan-32-yl)oxy)styryl)-7-(thiophen-2-yl)-5H-4λ^4-dipyrrolo[1,2-c:2′,1′-f][1,3,2]diazaborinin-5-uide]
[1]; [8]
  Kd: 50.1 nM
[2]
  Kd: 39.8 nM
  residence time: 7.68 ± 0.58 min
  koff: 0.00223 s⁻¹
  kon: 55000 M⁻¹ s⁻¹
[3]
  Ki: 20 nM
[4]
  BODIPY630/650 fluorescence localisation (confocal): clear membrane localisation
  fluorescence after pre-treatment with unlabelled mepyramine (specificity, confocal): very little fluorescence was observed

## c1ccc(Cc2ccccc2OC2CCNCC2)cc1 [VUF13816, 4-(2-benzylphenoxy)piperidine]
[5]
  pKi: 8.20

## CC(O)[C@H](NC(=O)[C@H](C)NC(=O)[C@H](CC(N)=O)NC(=O)CCN1CCC(Oc2ccccc2Cc2ccccc2)CC1)C(=O)NCCNC(=O)CCCCCNC(=O)COc1ccc(/C=C/C2=[N+]3C(=Cc4ccc(-c5cccs5)n4[B-]3(F)F)C=C2)cc1 (stereo partly drawn) [Compound 25, (S)-2-(3-(4-(2-benzylphenoxy)piperidin-1-yl)propanamido)-N^1-((15 S,18 S)-1-(4-((E)-2-(5,5-difluoro-7-(thiophen-2-yl)-5H-4λ^4,5λ^4-dipyrrolo[1,2-c:2′,1’-f][1,3,2]diazaborinin-3-yl)vinyl)phenoxy)-15-((S)-1-hydroxyethyl)-2,9,14,17-tetraoxo-3,10,13,16-tetraazanonadecan-18-yl)succinamide]
[1]; [8]
  Kd: 31.6 nM
[2]
  Kd: 10 nM
  residence time: 39.5 ± 9.4 min
  koff: 0.0005 s⁻¹
  kon: 43300 M⁻¹ s⁻¹
[3]
  Ki: 6.31 nM

## COc1ccc(CN(CCN(C)CCC(=O)N[C@@H](C)C(=O)N[C@@H](C)C(=O)NCCNC(=O)CCCCCNC(=O)COc2ccc(/C=C/C3=[N+]4C(=Cc5ccc(-c6cccs6)n5[B-]4(F)F)C=C3)cc2)c2ccccn2)cc1 [Compound 10, 6-(2-(4-((E)-2-(5,5-difluoro-7-(thiophen-2-yl)-5H-4λ^4,5λ^4-dipyrrolo[1,2-c:2′,1′-f][1,3,2]diazaborinin-3-yl)vinyl)phenoxy)acetamido)-N-((10 S,13 S)-1-(4-methoxyphenyl)-5,10,13-trimethyl-8,11,14-trioxo-2-(pyridin-2-yl)-2,5,9,12,15-pentaazaheptadecan-17-yl)hexanamide]
[6]
  Kd: 28.8 nM
[1]; [8]
  Kd: 7.94 nM
[1]; [9]
  Kd: 9.2 nM
[7]
  Kd: 3.55 nM
[2]
  Kd: 5.01 nM
  residence time: 4.99 ± 0.78 min
[3]
  Ki: 25.1 nM
[4]
  BODIPY630/650 fluorescence localisation (confocal): clear membrane localisation
  fluorescence after pre-treatment with unlabelled mepyramine (specificity, confocal): very little fluorescence was observed

## C[C@H](NC(=O)CCN1CCC(Oc2ccccc2Cc2ccccc2)CC1)C(=O)N[C@@H](C)C(=O)N[C@@H](C)C(=O)NCCNC(=O)CCCCCNC(=O)COc1ccc(/C=C/C2=[N+]3C(=Cc4ccc(-c5cccs5)n4[B-]3(F)F)C=C2)cc1 [Compound 23, N-((5 S,8 S,11 S)-15-(4-(2-benzylphenoxy)piperidin-1-yl)-5,8,11-trimethyl-4,7,10,13-tetraoxo-3,6,9,12-tetraazapentadecyl)-6-(2-(4-((E)-2-(5,5-difluoro-7-(thiophen-2-yl)-5H-4λ^4,5λ^4-dipyrrolo[1,2-c:2′,1′-f][1,3,2]diazaborinin-3-yl)vinyl)phenoxy)acetamido)hexanamide]
[1]; [8]
  Kd: 7.94 nM
[1]; [9]
  Kd: 9.8 nM
[2]
  Kd: 12.6 nM
  residence time: 54.1 ± 5.33 min
  koff: 0.000317 s⁻¹
  kon: 26700 M⁻¹ s⁻¹
[3]
  Ki: 3.98 nM
[4]
  fluorescence after pre-treatment with unlabelled mepyramine (specificity, confocal): Some residual binding was observed
